Results: PubChem BioAssay AID743181 (NMMLSC, 2013)
The source made the active and inactive calls.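 Rule for the calls: active = at least 15% GFP+ cells at the top dose together with an EC50 below 10 µM; inactive = the rest.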

Experiments:
[1] = lysozyme-GFP induction in HOXA9-ER cells – HOXA9-ER marrow cells, GFP flow, set 1, SAR follow-up (AID 743181); conditions: HOXA9-ER marrow cells, lysozyme-GFP differentiation, flow; at 10 µM (top of the series)
[2] = test system: HOXA9-ER marrow cells, lysozyme-GFP differentiation, flow; test: as above

EC50 [2]	Structure (SMILES)	GFP+ cells, differentiation [1]
–	O=C(CCNC(=O)c1ccc(Cl)cc1)N[C@H]1CCCc2ccccc21	1% (inactive)
–	Cc1cccc(C(=O)NCCC(=O)NC2CCCc3ccccc32)c1 (stereo not given)	1% (inactive)
–	O=C(CCNC(=O)c1ccc(F)cc1)N[C@@H]1CCCc2ccccc21	12% (inactive)
–	O=C(CNC(=O)c1ccc(OC(F)(F)F)cc1)N[C@@H]1CCCc2ccccc21	1% (inactive)
5.4 µM	O=C(O)c1cccnc1Nc1ccc(Cl)cc1	–
–	O=C(CCNC(=O)c1ccccc1)N[C@@H]1CCCc2ccccc21	3% (inactive)
–	CC(c1ccccc1)N(C)C(=O)CCNC(=O)c1ccc(Cl)cc1 (stereo not given)	0% (inactive)
–	O=C(O)c1ccccc1OCc1ccccc1Br	1% (inactive)
–	O=C(CCCNC(=O)c1ccc(Cl)c(Cl)c1)N[C@@H]1CCCc2ccccc21	1% (inactive)
–	N#Cc1ccc(C(=O)NCCC(=O)N[C@@H]2CCCc3ccccc32)cc1	16% (inactive)
–	CC(=O)NCCC(=O)N[C@@H]1CCCc2ccccc21	0% (inactive)
2.63 µM	O=C(CCNC(=O)c1ccc(C(F)(F)F)cc1)N[C@@H]1CCCc2ccccc21	–
9.97 µM	O=C(CCNC(=O)c1ccc(Cl)cc1)N[C@@H]1CCc2ccccc21	–
–	O=C(CNC(=O)c1ccc(Cl)cc1)N[C@@H]1CCCc2ccccc21	4% (inactive)
–	CC(NC(=O)C1CCCN(C(=O)c2ccc(Cl)cc2)C1)c1ccccc1 (stereo not given)	0% (inactive)
–	C[C@@H](NC(=O)CCNC(=O)c1ccc(Cl)cc1)c1ccccc1	1% (inactive)
–	O=C(CNC(=O)c1ccc(C(F)(F)F)cc1)N[C@@H]1CCCc2ccccc21	1% (inactive)
–	CC(C)(C)OC(=O)NCCC(=O)N[C@@H]1CCCc2ccccc21	1% (inactive)
–	CC(NC(=O)CCNC(=O)c1ccc(Cl)cc1)c1ccc2c(c1)OCO2 (stereo not given)	0% (inactive)
–	O=C(CCNC(=O)c1ccc(Cl)cc1)NC1CCCCC1	1% (inactive)

EC50 [2]	Structure (SMILES)	GFP+ cells, differentiation [1]
4.95 µM	COc1ccc(C(=O)NCCC(=O)N[C@@H]2CCCc3ccccc32)cc1	–
–	O=C(NC1CCc2ccccc21)C1CCCN(C(=O)c2ccc(Cl)cc2)C1 (stereo not given)	1% (inactive)
1.61 µM	O=C(CCNC(=O)c1ccc(OC(F)(F)F)cc1)N[C@@H]1CCCc2ccccc21	–
–	O=C(NC1CCOc2ccccc21)C1CCCN(C(=O)c2ccc(Cl)cc2)C1 (stereo not given)	1% (inactive)
8.68 µM	Cc1ccc(C(=O)NCCC(=O)N[C@@H]2CCCc3ccccc32)cc1	–
–	NCCC(=O)N[C@@H]1CCCc2ccccc21	1% (inactive)
–	COc1ccccc1C(C)NC(=O)CCNC(=O)c1ccc(Cl)cc1 (stereo not given)	0% (inactive)
–	O=C(CNC(=O)c1ccc(Cl)c(Cl)c1)N[C@@H]1CCCc2ccccc21	2% (inactive)
–	Cc1ccc(C)c(OCCn2cc(C(=O)O)c3ccccc32)c1	0% (inactive)
–	O=C(CCCNC(=O)c1ccc(C(F)(F)F)cc1)N[C@@H]1CCCc2ccccc21	1% (inactive)
–	O=C(Cc1ccc(Cl)cc1)NCCC(=O)N[C@@H]1CCCc2ccccc21	16% (inactive)
5.06 µM	O=C(CCNC(=O)c1ccc(Cl)cc1)NC1CCCc2ccccc21 (stereo not given)	–
4.69 µM	O=C(CCNC(=O)c1ccc2c(c1)OC(F)(F)O2)N[C@@H]1CCCc2ccccc21	–
3.47 µM	O=C(CCNC(=O)c1ccc(Cl)cc1)N[C@@H]1CCCc2ccccc21	–
–	O=C(CCCNC(=O)c1ccc(Cl)cc1)N[C@@H]1CCCc2ccccc21	2% (inactive)
–	O=C(CCCNC(=O)c1ccc(OC(F)(F)F)cc1)N[C@@H]1CCCc2ccccc21	1% (inactive)
–	CC(NC(=O)CCNC(=O)c1ccc(Cl)cc1)c1ccc(F)cc1 (stereo not given)	1% (inactive)
3.24 µM	O=C(CCNC(=O)c1ccc(Cl)c(Cl)c1)N[C@@H]1CCCc2ccccc21	–
–	CC(C)(C)OC(=O)NCCC(=O)N[C@H]1CCCc2ccccc21	1% (inactive)
5.42 µM	O=C(CCNC(=O)c1cccc(Cl)c1)N[C@@H]1CCCc2ccccc21	–
